Read-outs that look alike come from different tables or passages of the source.
Experiments:
human CLR/RAMP1 = target: T1, human CLR/RAMP1 (Homo sapiens, UniProt O60894+Q16602); experiment: CLR/RAMP1 receptor-activation assay (DiscoverX cAMP Hunter, HitHunter cAMP XS+); assay type: cell-based; conditions: for Emax: read-out: CLR/RAMP1 Max Activity
T1 construct: host or cells: 1321N1 cells (cAMP Hunter cell line)
Method: (§1) The bioactivity of peptide analogs was studied using CLR/RAMP1, CLR/RAMP2, and CLR/RAMP3 assays by DiscoveRx (Fremont, CA, USA) in cells that stably express human CLR/RAMP1 (1321N1 cells), CLR/RAMP2 (CHO-K1 cells), or CLR/RAMP3 (CHO-K1 cells). The dose-dependent stimulatory effect of agonists was studied in duplicate, at 10 different concentrations. Determination of the half-maximal effective concentration (EC50) was performed using a 10-point dose-response curves. The starting concentration was 1.0 μM, and it was serially diluted 3-fold, in DMSO.
Cells were seeded in a total volume of 20 μL into 384-well microplates, and the activity was determined using the DiscoverX HitHunter cAMP XS + assay. Before the assay, media was aspirated from cells and replaced with 15 μL 2:1 HBSS/10 mM Hepes: cAMP XS + Ab reagent. Intermediate dilution of samples was performed to generate 4X sample in assay buffer, and 5 μL of the 4X sample was added to cells and incubated at 37°C. Vehicle concentration was 1%.
The chemiluminescent signal was read with a PerkinElmer instrument.

human CLR/RAMP2 = target: T2, human CLR/RAMP2 (Homo sapiens, UniProt O60895+Q16602); experiment: CLR/RAMP2 receptor-activation assay (PathHunter β-Arrestin); assay type: cell-based; conditions: for Emax: read-out: CLR/RAMP2 Max Activity
T2 construct: host or cells: CHO-K1 cells (PathHunter β-Arrestin cell line)
T2 sequence (Q16602 23-461): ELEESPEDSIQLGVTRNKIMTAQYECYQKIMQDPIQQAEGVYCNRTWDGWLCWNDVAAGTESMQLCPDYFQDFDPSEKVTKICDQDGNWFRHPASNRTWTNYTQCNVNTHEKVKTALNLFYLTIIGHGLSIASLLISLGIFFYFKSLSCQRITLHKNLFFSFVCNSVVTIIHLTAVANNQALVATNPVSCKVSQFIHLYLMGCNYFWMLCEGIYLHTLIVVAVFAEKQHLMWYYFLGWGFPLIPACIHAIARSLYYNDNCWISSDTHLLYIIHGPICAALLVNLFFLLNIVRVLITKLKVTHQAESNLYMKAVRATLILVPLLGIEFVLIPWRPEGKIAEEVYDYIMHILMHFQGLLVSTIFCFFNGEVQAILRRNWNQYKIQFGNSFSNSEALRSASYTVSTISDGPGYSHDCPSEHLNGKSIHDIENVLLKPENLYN
T2 sequence (O60895 43-175): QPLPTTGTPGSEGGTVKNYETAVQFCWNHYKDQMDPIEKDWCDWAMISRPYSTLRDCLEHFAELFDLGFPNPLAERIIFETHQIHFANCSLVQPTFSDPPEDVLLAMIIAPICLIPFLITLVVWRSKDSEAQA
Method: as §1
In this assay, the CLR was fused in frame with a small enzyme donor fragment ProLink™ (PK). The receptor was co-expressed with a fusion protein of β-arrestin and an N-terminal deletion mutant of β-galactosidase (i.e., enzyme acceptor). Activation of the CLR/RAMP2 receptor stimulated the binding of β-arrestin to the PK-tagged receptor and led to an increase in enzyme activities which can then be measured with the PathHunter detection reagents. PathHunter cell lines were seeded in a total volume of 20 μL into 384-well microplates and incubated at 37 °C prior to the assay. Intermediate dilution of samples was performed to generate 5X samples in the assay buffer. A 5 μL aliquot of 5X sample was added to cells and incubated at 37 °C for 90 min. Vehicle concentration was 1%.

T1 sequence (Q16602 23-461): as the sequence (Q16602 23-461) above
T1 sequence (O60894 27-148): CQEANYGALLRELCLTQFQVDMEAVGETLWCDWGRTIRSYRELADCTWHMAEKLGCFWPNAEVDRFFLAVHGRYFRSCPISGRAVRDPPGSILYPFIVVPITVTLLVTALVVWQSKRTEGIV

Row | EC50 (human CLR/RAMP1; 1321N1 cells stably expressing human CLR/RAMP1, cAMP read-out, 10-point dose-response in duplicate, start 1.0 μM, 3-fold serial dilution in DMSO) | Emax (human CLR/RAMP1; percentage of positive control β-CGRP) | EC50 (human CLR/RAMP2; CHO-K1 cells stably expressing human CLR/RAMP2, β-arrestin recruitment, 90 min at 37 °C, 10-point dose-response in duplicate, start 1.0 μM, 3-fold dilution in DMSO) | Emax (human CLR/RAMP2; percentage of positive control ADM1-52) | SMILES | Emax (human CLR/RAMP1) | Emax (human CLR/RAMP2)
1 | – | – | – | – | CCCCCCCCCCCCCCCC(=O)NCCCC[C@H](NC(=O)COCCOCCN)C(=O)NCC(=O)N[C@H]1CSSC[C@@H](C(=O)N[C@H](C(=O)N[C@H](C(=O)N[C@@H](CCC(N)=O)C(=O)N[C@@H](CCCCN)C(=O)N[C@@H](CC(C)C)C(=O)N[C@@H](C)C(=O)N[C@@H](Cc2c[nH]cn2)C(=O)N[C@@H](CCC(N)=O)C(=O)N[C@H](C(=O)N[C@@H](Cc2ccc(O)cc2)C(=O)N[C@@H](CCC(N)=O)C(=O)N[C@@H](Cc2ccccc2)C(=O)N[C@H](C(=O)N[C@@H](CC(=O)O)C(=O)N[C@@H](CCCCN)C(=O)N[C@@H](CC(=O)O)C(=O)N[C@@H](CCCCN)C(=O)N[C@@H](CC(=O)O)C(=O)N[C@@H](CC(N)=O)C(=O)N[C@@H](CO)C(=O)N[C@@H](C)C(=O)N2CCC[C@H]2C(=O)N[C@H](C(=O)N[C@@H](CC(=O)O)C(=O)N2CCC[C@H]2C(=O)N[C@@H](CO)C(=O)N[C@@H](CO)C(=O)N2CCC[C@H]2C(=O)N[C@@H](Cc2c[nH]cn2)C(=O)N[C@@H](CO)C(=O)N[C@@H](Cc2ccc(O)cc2)C(N)=O)C(C)C)[C@@H](C)O)[C@@H](C)CC)C(C)C)[C@@H](C)O)NC(=O)[C@H]([C@@H](C)O)NC(=O)CNC(=O)[C@H](Cc2ccccc2)NC(=O)[C@H](CCCNC(=N)N)NC1=O [Analog B-1] | 54% | 143%
2 | 0.2 nM | 82% | 0.5 nM | 86% | CCCCCCCCCCCCCCCC(=O)NCCCC[C@H](NC(=O)[C@@H](N)[C@@H](C)O)C(=O)N[C@@H](CCCCN)C(=O)N[C@H](C(=O)N[C@@H](CC(C)C)C(=O)N[C@@H](CCCNC(=N)N)C(=O)N[C@H](C(=O)NCC(=O)N[C@H]1CSSC[C@@H](C(=O)N[C@H](C(=O)N[C@H](C(=O)N[C@@H](CCC(N)=O)C(=O)N[C@@H](CCCCN)C(=O)N[C@@H](CC(C)C)C(=O)N[C@@H](C)C(=O)N[C@@H](Cc2c[nH]cn2)C(=O)N[C@@H](CCC(N)=O)C(=O)N[C@H](C(=O)N[C@@H](Cc2ccc(O)cc2)C(=O)N[C@@H](CCC(N)=O)C(=O)N[C@@H](Cc2ccccc2)C(=O)N[C@H](C(=O)N[C@@H](CC(=O)O)C(=O)N[C@@H](CCCCN)C(=O)N[C@@H](CC(=O)O)C(=O)N[C@@H](CCCCN)C(=O)N[C@@H](CC(=O)O)C(=O)N[C@@H](CC(N)=O)C(=O)N[C@@H](CO)C(=O)N[C@@H](C)C(=O)N2CCC[C@H]2C(=O)N[C@H](C(=O)N[C@@H](CC(=O)O)C(=O)N2CCC[C@H]2C(=O)N[C@@H](CO)C(=O)N[C@@H](CO)C(=O)N2CCC[C@H]2C(=O)N[C@@H](Cc2c[nH]cn2)C(=O)N[C@@H](CO)C(=O)N[C@@H](Cc2ccc(O)cc2)C(N)=O)C(C)C)[C@@H](C)O)[C@@H](C)CC)C(C)C)[C@@H](C)O)NC(=O)[C@H]([C@@H](C)O)NC(=O)CNC(=O)[C@H](Cc2ccccc2)NC(=O)[C@H](CCCNC(=N)N)NC1=O)[C@@H](C)O)[C@@H](C)O [Analog C-4] | – | –

Reference: PMC9655119, “Sustained Activation of CLR/RAMP Receptors by Gel-Forming Agonists” (International Journal of Molecular Sciences, 2022)
